Target: T1, human PAD4 (Homo sapiens, UniProt Q9UM07)
T1 construct: human PAD4 (NM_012387), A2P663, was PCR amplified; His-SUMO (N, cleaved yes); made in house; host or cells: E. coli BL21(DE3)
Assay: In vitro PAD4 BAEE biochemical assay
Conditions: human PAD4, BAEE substrate; 5 nM PAD4, 2 mM calcium chloride, 3 mM BAEE; geometric mean of multiple experiments
Outline: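 Ammonia generated from BAEE serves as the readout, measured by o-phthalaldehyde after EDTA termination. Final conditions: 5 nM human PAD4 (SUMO tag cleaved), 2 mM CaCl2, 3 mM BAEE, pH 7.6 MOPS buffer, 25 °C for 2 h following a 30-min compound preincubation.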

T1 sequence (Q9UM07 2-663): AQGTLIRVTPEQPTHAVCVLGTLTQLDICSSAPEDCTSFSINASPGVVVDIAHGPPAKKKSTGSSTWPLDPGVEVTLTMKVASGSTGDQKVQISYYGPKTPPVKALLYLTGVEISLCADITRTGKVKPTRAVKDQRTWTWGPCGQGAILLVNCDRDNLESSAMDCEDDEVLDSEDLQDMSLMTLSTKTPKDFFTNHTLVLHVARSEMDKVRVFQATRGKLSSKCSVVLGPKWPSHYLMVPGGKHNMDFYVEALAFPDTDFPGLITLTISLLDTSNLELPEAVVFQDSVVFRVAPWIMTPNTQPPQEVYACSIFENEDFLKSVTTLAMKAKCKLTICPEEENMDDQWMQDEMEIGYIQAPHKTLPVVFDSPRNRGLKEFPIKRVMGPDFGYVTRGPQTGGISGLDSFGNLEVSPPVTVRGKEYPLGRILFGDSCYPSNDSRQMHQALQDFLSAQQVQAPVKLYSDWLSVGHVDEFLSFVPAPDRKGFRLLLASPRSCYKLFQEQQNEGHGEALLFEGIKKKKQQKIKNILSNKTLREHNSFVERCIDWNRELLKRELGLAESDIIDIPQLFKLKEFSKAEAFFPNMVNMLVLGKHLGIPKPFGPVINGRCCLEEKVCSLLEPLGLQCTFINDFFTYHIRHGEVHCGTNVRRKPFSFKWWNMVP

First: COc1cc(C(=O)N2C[C@H](N)[C@@H](F)C2)cc2nc(-c3cc4ccc(N(C(F)F)S(C)(=O)=O)nc4n3CC3CC3)c(C)n12 [Example 290, ~{N}-[2-[7-[(3~{S}, 4~{S})-3-amino-4-fluoropyrrolidine-1-carbonyl]-5-methoxy-3-methylimidazo [1,2-a]pyridin-2-yl]-1-(cyclopropylmethyl)pyrrolo [2,3-b]pyridin-6-yl]-~{N}-(difluoromethyl) methanesulfonamide]
Second: COc1cc(C(=O)N2C[C@@H](F)[C@@H](N)C2)cc2nc(-c3cc4ccc(N(C(F)F)S(C)(=O)=O)nc4n3CC3CC3)c(C)n12 [Example 291, ~{N}-[2-[7-[(3~{S}, 4~{R})-3-amino-4-fluoropyrrolidine-1-carbonyl]-5-methoxy-3-methylimidazo [1,2-a]pyridin-2-yl]-1-(cyclopropylmethyl)pyrrolo [2,3-b]pyridin-6-yl]-~{N}-(difluoromethyl) methanesulfonamide]
The IC50 of the first is 1.6-fold higher: 9.87 µM for the first, 6.36 µM for the second. The second is the more potent here.

`COc1cc(C(=O)NC[C@@H]2CCCCN2)cc2nc(-c3cc4ccc(N(C(F)F)S(C)(=O)=O)nc4n3CC3CC3)c(C)n12` [Example 294, 2-[1-(cyclopropylmethyl)-6-[difluoromethyl (methylsulfonyl)amino]pyrrolo[2,3-b]pyridin-2-yl]-5-methoxy-3-methyl-~ {N}-[[(2~{S})-piperidin-2-yl]methyl]imidazo[1,2-a]pyridine-7-carboxamide] and `COc1cc(C(=O)NC[C@H]2CCCCN2)cc2nc(-c3cc4ccc(N(C(F)F)S(C)(=O)=O)nc4n3CC3CC3)c(C)n12` [Example 295, 2-[1-(cyclopropylmethyl)-6-[difluoromethyl (methylsulfonyl)amino]pyrrolo[2,3-b]pyridin-2-yl]-5-methoxy-3-methyl-~{N}-[[(2~{R})-piperidin-2-yl]methyl] imidazo[1,2-a]pyridine-7-carboxamide] are within 1.5-fold of each other in IC50: 38.4 µM for the first, 27.2 µM for the second.

Compared with `COc1cc(C(=O)N[C@H]2CCCCNC2)cc2nc(-c3cc4ccc(N(C(F)F)S(C)(=O)=O)nc4n3CC3CC3)c(C)n12` [Example 296, ~{N}-[(3~{S})-azepan-3-yl]-2-[1-(cyclopropylmethyl)-6-[difluoromethyl (methylsulfonyl)amino]pyrrolo[2,3-b]pyridin-2-yl]-5-methoxy-3-methylimidazo[1,2-a]pyridine-7-carboxamide], `COc1cc(C(=O)N[C@@H]2CCCCNC2)cc2nc(-c3cc4ccc(N(C(F)F)S(C)(=O)=O)nc4n3CC3CC3)c(C)n12` [Example 316, ~{N}-[(3~{R})-azepan-3-yl]-2-[1-(cyclopropylmethyl)-6-[difluoromethyl (methylsulfonyl)amino]pyrrolo[2,3-b]pyridin-2-yl]-5-methoxy-3-methylimidazo[1,2-a]pyridine-7-carboxamide] is 80-fold lower in IC50: 24.6 µM for the first, 0.306 µM for the second. The second is the more potent here.

First: COc1cc(C(=O)N[C@@H]2CC[C@H]3CC[C@@H]2N3)cc2nc(-c3cc4ccc(N(C(F)F)S(C)(=O)=O)nc4n3CC3CC3)c(C)n12 [Example 298, ~{N}-[(1~{S},2~{R}, 5~{R})-8-azabicyclo [3.2.1]octan-2-yl]-2-[1-(cyclopropylmethyl)-6-[difluoromethyl (methylsulfonyl)amino]pyrrolo[2,3-b]pyridin-2-yl]-5-methoxy-3-methylimidazo[1,2-a]pyridine-7-carboxamide]
Second: COc1cc(C(=O)N[C@@H]2CC[C@@H]3CC[C@H]2N3)cc2nc(-c3cc4ccc(N(C(F)F)S(C)(=O)=O)nc4n3CC3CC3)c(C)n12 [Example 299, ~{N}-[(1~{R},2~{R}, 5~{S})-8-azabicyclo [3.2.1]octan-2-yl]-2-[1-(cyclopropylmethyl)-6-[difluoromethyl (methylsulfonyl)amino]pyrrolo[2,3-b]pyridin-2-yl]-5-methoxy-3-methylimidazo[1,2-a]pyridine-7-carboxamide]
The IC50 of the first is 3.7-fold higher: 30 µM for the first, 8.05 µM for the second.

`COc1cc(C(=O)NC[C@@H]2CCCN2)cc2nc(-c3cc4ccc(N(C(F)F)S(C)(=O)=O)nc4n3CC3CC3)c(C)n12` [Example 303, 2-[1-(cyclopropylmethyl)-6-[difluoromethyl (methylsulfonyl)amino]pyrrolo[2,3-b]pyridin-2-yl]-5-methoxy-3-methyl-~{N}-[[(2~{S})-pyrrolidin-2-yl]methyl] imidazo[1,2-a] pyridine-7-carboxamide] and `COc1cc(C(=O)NC[C@H]2CCCN2)cc2nc(-c3cc4ccc(N(C(F)F)S(C)(=O)=O)nc4n3CC3CC3)c(C)n12` [Example 304, 2-[1-(cyclopropylmethyl)-6-[difluoromethyl (methylsulfonyl)amino]pyrrolo[2,3-b]pyridin-2-yl]-5-methoxy-3-methyl-~{N}-[[(2~{R})-pyrrolidin-2-yl]methyl] imidazo[1,2-a]pyridine-7-carboxamide] are within 1.5-fold of each other in IC50: 23.5 µM for the first, 19.2 µM for the second.

First: COc1cc(C(=O)N[C@H]2CNC[C@H](F)C2)cc2nc(-c3cc4ccc(N(C(F)F)S(C)(=O)=O)nc4n3CC3CC3)c(C)n12 [Example 306, 2-[1-(cyclopropylmethyl)-6-[difluoromethyl (methylsulfonyl)amino]pyrrolo[2,3-b]pyridin-2-yl]-~{N}-[(3~{R},5~{R})-5-fluoropiperidin-3-yl]-5-methoxy-3-methylimidazo [1,2-a]pyridine-7-carboxamide]
Second: COc1cc(C(=O)N[C@H]2CNC[C@@H](F)C2)cc2nc(-c3cc4ccc(N(C(F)F)S(C)(=O)=O)nc4n3CC3CC3)c(C)n12 [Example 307, 2-[1-(cyclopropylmethyl)-6-[difluoromethyl (methylsulfonyl)amino]pyrrolo[2,3-b]pyridin-2-yl]-~{N}-[(3~{R},5~{S})-5-fluoropiperidin-3-yl]-5-methoxy-3-methylimidazo [1,2-a]pyridine-7-carboxamide]
The IC50 of the first is 16-fold lower: 1.61 µM for the first, 25.6 µM for the second.

Going from `COc1cc(C(=O)N2CC[C@H]3CCCN[C@H]3C2)cc2nc(-c3cc4ccc(N(C(F)F)S(C)(=O)=O)nc4n3CC3CC3)c(C3CC3)n12` [Example 310, ~{N}-[2-[7-[(4~{a}~{R},8~{a}~{R})-2,3,4,4~{a},5,6,8,8~{a}-octahydro-1~{H}-1,7-naphthyridine-7-carbonyl]-3-cyclopropyl-5-methoxyimidazo [1,2-a]pyridin-2-yl]-1-(cyclopropylmethyl)pyrrolo [2,3-b]pyridin-6-yl]-~{N}-(difluoromethyl) methanesulfonamide] to `COc1cc(C(=O)N2C[C@@H]3NCCO[C@@H]3C2)cc2nc(-c3cc4ccc(N(C(F)F)S(C)(=O)=O)nc4n3CC3CC3)c(C)n12` [Example 320, ~{N}-[2-[7-[(4~{a}~{S},7~{a}~{R})-3,4,4~{a},5,7,7~{a}-hexahydro-2~{H}-pyrrolo[3,4-b][1,4]oxazine-6-carbonyl]-5-methoxy-3-methylimidazo [1,2-a]pyridin-2-yl]-1-(cyclopropylmethyl)pyrrolo [2,3-b]pyridin-6-yl]-~{N}-(difluoromethyl) methanesulfonamide], the IC50 rises from 0.886 µM to 19.1 µM (22-fold). The first is the more potent here.

Compared with `COc1cc(C(=O)N2[C@H]3CC[C@@H]2[C@H](N)[C@H](O)C3)cc2nc(-c3cc4ccc(N(C(F)F)S(C)(=O)=O)nc4n3CC3CC3)c(C)n12` [Example 311, ~{N}-[2-[7-[(1~{R}, 2~{S},3~{R},5~{S})-2-amino-3-hydroxy-8-azabicyclo[3.2.1]octane-8-carbonyl]-5-methoxy-3-methylimidazo [1,2-a]pyridin-2-yl]-1-(cyclopropylmethyl)pyrrolo [2,3-b]pyridin-6-yl]-~{N}-(difluoromethyl) methanesulfonamide], `COc1cc(C(=O)N[C@@H]2C[C@@H]3CC[C@H]2N3)cc2nc(-c3cc4ccc(N(C(F)F)S(C)(=O)=O)nc4n3CC3CC3)c(C)n12` [Example 312, N-[(1R,2R,4S)-7-azabicyclo[2.2.1]heptan-2-yl]-2-[1-(cyclopropylmethyl)-6-[difluoromethyl (methylsulfonyl)amino]pyrrolo[2,3-b]pyridin-2-yl]-5-methoxy-3-methyl-imidazo[1,2-a] pyridine-7-carboxamide] is 81-fold higher in IC50: 0.383 µM for the first, 31.2 µM for the second.

Compared with `COc1cc(C(=O)N[C@H]2CNCC[C@H]2C)cc2nc(-c3cc4ccc(N(C(F)F)S(C)(=O)=O)nc4n3CC3CC3)c(C)n12` [Example 313, 2-[1-(cyclopropylmethyl)-6-[difluoromethyl (methylsulfonyl)amino]pyrrolo[2,3-b]pyridin-2-yl]-5-methoxy-3-methyl-~{N}-[(3~{R},4~{R})-4-methylpiperidin-3-yl]imidazo[1,2-a] pyridine-7-carboxamide], `COc1cc(C(=O)N[C@@H]2CC[C@@H](C)NC2)cc2nc(-c3cc4ccc(N(C(F)F)S(C)(=O)=O)nc4n3CC3CC3)c(C)n12` [Example 314, 2-[1-(cyclopropylmethyl)-6-[difluoromethyl (methylsulfonyl)amino]pyrrolo[2,3-b]pyridin-2-yl]-5-methoxy-3-methyl-~{N}-[(3~{R},6~{R})-6-methylpiperidin-3-yl]imidazo[1,2-a] pyridine-7-carboxamide] is 1.6-fold higher in IC50: 24.2 µM for the first, 38.7 µM for the second. The first is the more potent here.

First: COc1cc(C(=O)N[C@@H]2CC[C@H](C)NC2)cc2nc(-c3cc4ccc(N(C(F)F)S(C)(=O)=O)nc4n3CC3CC3)c(C)n12 [Example 315, 2-[1-(cyclopropylmethyl)-6-[difluoromethyl (methylsulfonyl)amino]pyrrolo[2,3-b]pyridin-2-yl]-5-methoxy-3-methyl-~{N}-[(3~{R},6~{S})-6-methylpiperidin-3-yl]imidazo[1,2-a] pyridine-7-carboxamide]
Second: COc1cc(C(=O)N[C@H]2CNC[C@@H](C)C2)cc2nc(-c3cc4ccc(N(C(F)F)S(C)(=O)=O)nc4n3CC3CC3)c(C)n12 [Example 317, 2-[1-(cyclopropylmethyl)-6-[difluoromethyl (methylsulfonyl)amino]pyrrolo[2,3-b]pyridin-2-yl]-5-methoxy-3-methyl-~{N}-[(3~{R},5~{S})-5-methylpiperidin-3-yl] imidazo[1,2-a]pyridine-7-carboxamide]
The IC50 of the first is 2.3-fold lower: 0.35 µM for the first, 0.813 µM for the second.

Reference: US12240862B2, “Inhibitors of peptidylarginine deiminases” (Gilead Sciences, Inc., priority 2020, dated 2025)
